According to ChEMBL document CHEMBL1201862, “PubChem BioAssay data set” (2004):
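Compound exposure: 48 hours, 5 concentrations, 96-well plates. Here, GI50 denotes the concentration required for 50% inhibition of growth.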 The source made the active and inactive calls. Rule as the data show it: active = GI50 up to about 1.1 µM and inactive = higher.

How the values were obtained:
Experiment in all cases: growth of human tumour cells (NCI), 48 h
786-0 = test system: 786-0
A498 = test system: A498
BT-549 = test system: BT-549
EKVX = test system: EKVX
HCT-116 = test system: HCT-116
HOP-92 = test system: HOP-92
HT-29 = test system: HT-29
KM12 = test system: KM12
M14 = test system: M14
MOLT-4 = test system: MOLT-4
Malme-3M = test system: Malme-3M
OVCAR-3 = test system: OVCAR-3
PC-3 = test system: PC-3
SF-295 = test system: SF-295
SN12C = test system: SN12C
SW-620 = test system: SW-620
UACC-62 = test system: UACC-62
NCI-H522 = test system: NCI-H522
Hs-578T = test system: Hs-578T

SMILES	GI50 (786-0)	GI50 (A498)	GI50 (BT-549)	GI50 (EKVX)	GI50 (HCT-116)	GI50 (HOP-92)	GI50 (HT-29)	GI50 (KM12)	GI50 (M14)	GI50 (MOLT-4)	GI50 (Malme-3M)	GI50 (OVCAR-3)	GI50 (PC-3)	GI50 (SF-295)	GI50 (SN12C)	GI50 (SW-620)	GI50 (UACC-62)	GI50 (NCI-H522)	GI50 (Hs-578T)
C=C(C)C1Cc2c(cc(O)c3c(=O)c4c(oc23)C(O)Oc2cc(OC)c(OC)cc2-4)O1 (stereo not drawn)	> 10 µM (inactive)	> 10 µM (inactive)	> 10 µM (inactive)	> 10 µM (inactive)	> 10 µM (inactive)	> 10 µM (inactive)	> 10 µM (inactive)	> 10 µM (inactive)	> 10 µM (inactive)	> 10 µM (inactive)	> 10 µM (inactive)	> 10 µM (inactive)	> 10 µM (inactive)	> 10 µM (inactive)	> 10 µM (inactive)	> 10 µM (inactive)	> 10 µM (inactive)	–	–
O=C(/N=N/c1ccccc1Cl)NNc1ccccc1Cl	18.5 µM (inactive)	29 µM (inactive)	> 10 µM (inactive)	–	20.5 µM (inactive)	–	93.8 µM (inactive)	–	56.8 µM (inactive)	29.3 µM (inactive)	67 µM (inactive)	35 µM (inactive)	30 µM (inactive)	–	61.7 µM (inactive)	40.7 µM (inactive)	43.4 µM (inactive)	23.6 µM (inactive)	–
COC(C/C(=C/CO[Si](C(C)C)(C(C)C)C(C)C)C(=O)Nc1ccccc1I)OC	24.1 µM (inactive)	> 100 µM (inactive)	–	–	8.97 µM (inactive)	19 µM (inactive)	29.6 µM (inactive)	31 µM (inactive)	29.9 µM (inactive)	11.8 µM (inactive)	0.0676 µM (active)	21.8 µM (inactive)	18.9 µM (inactive)	8.63 µM (inactive)	26.9 µM (inactive)	45.4 µM (inactive)	53.5 µM (inactive)	1.53 µM (inactive)	29.6 µM (inactive)
COc1ccc2c(c1)CCN1CCc3cc(OC)c(OC)cc3CC21 (stereo not drawn)	> 100 µM (inactive)	> 100 µM (inactive)	10.3 µM (inactive)	> 10 µM (inactive)	41.9 µM (inactive)	89.3 µM (inactive)	35 µM (inactive)	88.5 µM (inactive)	58.5 µM (inactive)	39.4 µM (inactive)	–	–	–	> 100 µM (inactive)	> 100 µM (inactive)	80.5 µM (inactive)	32.6 µM (inactive)	> 10 µM (inactive)	89.5 µM (inactive)
CC(=O)Nc1ccc(OC2=CCN(C)CC2)cc1	> 100 µM (inactive)	–	> 100 µM (inactive)	> 100 µM (inactive)	> 100 µM (inactive)	–	> 100 µM (inactive)	> 100 µM (inactive)	> 100 µM (inactive)	> 100 µM (inactive)	> 100 µM (inactive)	> 100 µM (inactive)	> 100 µM (inactive)	> 100 µM (inactive)	> 100 µM (inactive)	> 100 µM (inactive)	> 100 µM (inactive)	–	> 100 µM (inactive)
N#Cc1nc(-c2cccnc2)oc1N	> 100 µM (inactive)	> 100 µM (inactive)	–	> 100 µM (inactive)	> 100 µM (inactive)	> 100 µM (inactive)	> 100 µM (inactive)	> 100 µM (inactive)	–	74 µM (inactive)	> 100 µM (inactive)	> 100 µM (inactive)	> 100 µM (inactive)	–	> 100 µM (inactive)	> 100 µM (inactive)	> 100 µM (inactive)	> 100 µM (inactive)	> 100 µM (inactive)
CCCCCCc1ccc(CCCCCCCC(=O)O)o1	> 100 µM (inactive)	–	> 100 µM (inactive)	> 100 µM (inactive)	68.5 µM (inactive)	> 100 µM (inactive)	46.2 µM (inactive)	70.8 µM (inactive)	> 100 µM (inactive)	16.4 µM (inactive)	–	34.2 µM (inactive)	> 100 µM (inactive)	55.5 µM (inactive)	> 100 µM (inactive)	> 100 µM (inactive)	–	–	–
Cc1ccc(S(=O)(=O)N(CC(O)COc2ccccc2)c2ccc(F)cc2F)cc1 (stereo not drawn)	16.8 µM (inactive)	15.3 µM (inactive)	–	14.7 µM (inactive)	–	0.122 µM (active)	14.9 µM (inactive)	20 µM (inactive)	17.3 µM (inactive)	22.8 µM (inactive)	16 µM (inactive)	15.3 µM (inactive)	12.8 µM (inactive)	17.2 µM (inactive)	15.3 µM (inactive)	16.5 µM (inactive)	13.5 µM (inactive)	–	17.3 µM (inactive)
Cc1cc(C#N)c(Nc2ccccc2[N+](=O)[O-])s1	49.9 µM (inactive)	37.7 µM (inactive)	19.4 µM (inactive)	22.3 µM (inactive)	23.8 µM (inactive)	57.9 µM (inactive)	–	36.1 µM (inactive)	32.8 µM (inactive)	55.7 µM (inactive)	–	21 µM (inactive)	23.8 µM (inactive)	24.8 µM (inactive)	19.2 µM (inactive)	25.5 µM (inactive)	54.2 µM (inactive)	19.8 µM (inactive)	–
Cc1ccc(NC(=O)C(=O)CC(=O)C2CCOC2=O)c(C)c1 (stereo not drawn)	> 100 µM (inactive)	> 100 µM (inactive)	–	> 100 µM (inactive)	> 100 µM (inactive)	> 100 µM (inactive)	> 100 µM (inactive)	> 100 µM (inactive)	> 100 µM (inactive)	–	> 100 µM (inactive)	> 100 µM (inactive)	–	> 100 µM (inactive)	> 100 µM (inactive)	> 100 µM (inactive)	> 100 µM (inactive)	> 100 µM (inactive)	–
OCSc1nn(CO)c(=S)s1	23.1 µM (inactive)	–	–	33.7 µM (inactive)	24.2 µM (inactive)	11.4 µM (inactive)	28.1 µM (inactive)	18.7 µM (inactive)	20.1 µM (inactive)	23.4 µM (inactive)	22.5 µM (inactive)	24 µM (inactive)	24.4 µM (inactive)	26.9 µM (inactive)	21.2 µM (inactive)	28.1 µM (inactive)	17.5 µM (inactive)	17 µM (inactive)	14.3 µM (inactive)
COc1ccc(/C=C2/C(C)=NN(c3cccc(Cl)c3)/C2=N/c2nc3ccccc3s2)cc1	20.3 µM (inactive)	23.1 µM (inactive)	–	40.2 µM (inactive)	19.2 µM (inactive)	20.9 µM (inactive)	19.5 µM (inactive)	30.4 µM (inactive)	25.1 µM (inactive)	24.9 µM (inactive)	–	20.2 µM (inactive)	19 µM (inactive)	22.5 µM (inactive)	–	22.7 µM (inactive)	–	19.1 µM (inactive)	24.7 µM (inactive)
O=[N+]([O-])c1ccc(CSc2nncc3[nH]cnc23)cc1	> 100 µM (inactive)	> 100 µM (inactive)	85.3 µM (inactive)	> 100 µM (inactive)	> 100 µM (inactive)	10.6 µM (inactive)	> 100 µM (inactive)	> 100 µM (inactive)	> 100 µM (inactive)	> 100 µM (inactive)	66.8 µM (inactive)	> 100 µM (inactive)	> 100 µM (inactive)	65.2 µM (inactive)	> 100 µM (inactive)	> 100 µM (inactive)	62.4 µM (inactive)	> 100 µM (inactive)	–
CN(C)/C=[N+]1/[C@@H](Cc2ccccc2)C(=O)O[B-]1(F)c1ccccc1 (stereo partly drawn)	> 100 µM (inactive)	> 100 µM (inactive)	> 100 µM (inactive)	> 100 µM (inactive)	> 100 µM (inactive)	> 100 µM (inactive)	> 100 µM (inactive)	–	> 100 µM (inactive)	> 100 µM (inactive)	> 100 µM (inactive)	> 100 µM (inactive)	> 100 µM (inactive)	> 100 µM (inactive)	> 100 µM (inactive)	> 100 µM (inactive)	> 100 µM (inactive)	–	–
C=C1C(=O)[C@@]23CC[C@@H]4[C@@]5(C)CCC[C@@]4(OC5=O)C2(C)CC[C@]1(OC)C3 (stereo partly drawn)	0.279 µM (active)	–	–	9.18 µM (inactive)	0.423 µM (active)	–	0.36 µM (active)	2.32 µM (inactive)	1.72 µM (inactive)	0.238 µM (active)	–	1.01 µM (active)	1.05 µM (active)	3.4 µM (inactive)	1.73 µM (inactive)	0.718 µM (active)	1.35 µM (inactive)	0.406 µM (active)	1.96 µM (inactive)
NS(=O)(=O)c1nnc(NC(=O)Nc2ccc(Cl)c(Cl)c2)s1	24.3 µM (inactive)	22 µM (inactive)	20 µM (inactive)	28.8 µM (inactive)	19.5 µM (inactive)	16.3 µM (inactive)	16.7 µM (inactive)	26.9 µM (inactive)	16.8 µM (inactive)	32.5 µM (inactive)	17.6 µM (inactive)	24.9 µM (inactive)	–	31.7 µM (inactive)	19.3 µM (inactive)	27.9 µM (inactive)	16.2 µM (inactive)	11.7 µM (inactive)	29.2 µM (inactive)
CN(C)Cc1cc(C(=O)/C=C/c2ccc(Br)cc2)cc(CN(C)C)c1O	5.28 µM (inactive)	14.3 µM (inactive)	–	13.2 µM (inactive)	6.14 µM (inactive)	3.33 µM (inactive)	3.2 µM (inactive)	2.16 µM (inactive)	4.79 µM (inactive)	3.91 µM (inactive)	16.6 µM (inactive)	3.24 µM (inactive)	1.67 µM (inactive)	5.58 µM (inactive)	2.84 µM (inactive)	4.25 µM (inactive)	–	3.93 µM (inactive)	18.7 µM (inactive)
